Assay results reported in patent publication US7524851B2 (Robert Bosch Gesellschaft fur Medizinische Forschung (RBMF), priority 2003, dated 2009).

Assays:
caspase-8 = assay: Fluorometric protease assay, caspase-8 activity in T lymphocytes; assay type: cell-based, human; details: CD3/CD28/rIL-2 stimulated T cells, 5 days; on average
Protocol: (§1) Caspase-3 proteolytic activity was determined at day 5 by the caspase-3/CPP 32 fluorometric protease assay (Bio Source; Worcester, Mass., USA) according to the manufacturer's protocol. Caspase-8 and caspase-9 proteolytic activity were assessed in parallel by the corresponding fluorometric protease assays (Bio Source).

caspase-3 = assay: Fluorometric protease assay, caspase-3 activity in T lymphocytes; assay type: cell-based, human; details: CD3/CD28/rIL-2 stimulated T cells, 5 days
Protocol: as §1

caspase-9 = assay: Fluorometric protease assay, caspase-9 activity in T lymphocytes; assay type: cell-based, human; details: CD3/CD28/rIL-2 stimulated T cells, 5 days
Protocol: as §1

[1] = after oral administration and absorption; non-enzymatic attack by sulfhydryl-containing compounds; cited from earlier work

induction of caspase-8 (caspase-8)	caspase-3 activity (caspase-3)	caspase-9 activity (caspase-9)	SMILES	conversion to 6-MP [1]
less pronounced	marked induction	marked induction	Sc1ncnc2nc[nH]c12 [6-MP, 6-mercaptopurine]	–
–	–	–	Cn1cnc([N+](=O)[O-])c1Sc1ncnc2nc[nH]c12 [azathioprine, Azathioprine]	approximately 90%
